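Each compound was tested at five concentrations against cells in 96-well plates for 48 hours. GI50 is the concentration that inhibits growth by half.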 Calls of active or inactive are those of the source. Rule as the data show it: active = GI50 up to about 1.1 µM and inactive = higher.
Experiments:
Experiment in all cases: NCI tumour cell line growth inhibition, 48 h
SR = tested on: SR
SK-MEL-2 = tested on: SK-MEL-2
UACC-62 = tested on: UACC-62
EKVX = tested on: EKVX
RXF 393 = tested on: RXF 393
OVCAR-4 = tested on: OVCAR-4
ACHN = tested on: ACHN
SF-295 = tested on: SF-295
TK-10 = tested on: TK-10
NCI-H460 = tested on: NCI-H460
U-251 = tested on: U-251
UO-31 = tested on: UO-31
SNB-19 = tested on: SNB-19
786-0 = tested on: 786-0
SK-MEL-5 = tested on: SK-MEL-5
NCI-H522 = tested on: NCI-H522
HCT-116 = tested on: HCT-116
IGROV-1 = tested on: IGROV-1

Measured: GI50

COc1cc(C=C2C(=O)NC(=O)NC2=O)cc(OC)c1OC
inactive: SR > 100 µM | SK-MEL-2 > 100 µM | UACC-62 > 100 µM | EKVX > 100 µM | RXF 393 > 100 µM | OVCAR-4 > 100 µM | ACHN > 100 µM | SF-295 > 100 µM | TK-10 > 100 µM | NCI-H460 > 100 µM | U-251 > 100 µM | UO-31 > 100 µM | SNB-19 > 100 µM | 786-0 > 100 µM | SK-MEL-5 > 100 µM | NCI-H522 > 100 µM | HCT-116 > 100 µM

CNC(=O)CN(CC(N)=O)C(N)=O
inactive: SR > 100 µM | SK-MEL-2 > 100 µM | UACC-62 > 100 µM | EKVX > 100 µM | RXF 393 > 100 µM | OVCAR-4 > 100 µM | ACHN > 100 µM | IGROV-1 > 100 µM | SF-295 > 100 µM | TK-10 > 100 µM | NCI-H460 > 100 µM | U-251 > 100 µM | UO-31 > 100 µM | SNB-19 > 100 µM | 786-0 > 100 µM | SK-MEL-5 > 100 µM | NCI-H522 > 100 µM

C[C@H](O)CCC(=O)c1ccoc1
inactive: SR > 100 µM | SK-MEL-2 > 100 µM | UACC-62 > 100 µM | EKVX > 100 µM | RXF 393 > 100 µM | OVCAR-4 > 100 µM | ACHN > 100 µM | IGROV-1 > 100 µM | SF-295 > 100 µM | TK-10 > 100 µM | NCI-H460 > 100 µM | U-251 > 100 µM | UO-31 > 100 µM | SNB-19 > 100 µM | 786-0 > 100 µM | SK-MEL-5 > 100 µM | NCI-H522 > 100 µM | HCT-116 > 100 µM

NC(=S)N1N=C2c3ccccc3CC[C@@H]2[C@@H]1c1ccccc1
inactive: SR 1.47 µM | SK-MEL-2 5.92 µM | UACC-62 4.74 µM | EKVX 16.3 µM | RXF 393 4.95 µM | OVCAR-4 23.8 µM | ACHN 7.94 µM | IGROV-1 12.6 µM | SF-295 3.13 µM | TK-10 16.8 µM | NCI-H460 5.42 µM | U-251 3.98 µM | UO-31 14.2 µM | SNB-19 5.77 µM | 786-0 6.89 µM | SK-MEL-5 3.82 µM | NCI-H522 1.5 µM | HCT-116 5.48 µM

Nc1n/c(=N\c2ccccc2)ss1
inactive: SR > 100 µM | UACC-62 > 100 µM | EKVX > 100 µM | RXF 393 > 100 µM | OVCAR-4 > 100 µM | ACHN > 100 µM | IGROV-1 > 100 µM | SF-295 > 100 µM | TK-10 > 100 µM | NCI-H460 > 100 µM | U-251 > 100 µM | UO-31 > 100 µM | SNB-19 > 100 µM | 786-0 > 100 µM | SK-MEL-5 > 100 µM | NCI-H522 > 100 µM | HCT-116 > 100 µM

NS(=O)(=O)c1ccccc1C(=O)N/N=C(\c1nc2ccc([N+](=O)[O-])cc2[nH]c1=O)C(O)c1ccc([N+](=O)[O-])cc1 (configuration not stated)
inactive: SR > 100 µM | SK-MEL-2 > 100 µM | UACC-62 52.2 µM | EKVX > 100 µM | RXF 393 > 100 µM | OVCAR-4 > 100 µM | ACHN 41.6 µM | IGROV-1 > 100 µM | SF-295 > 100 µM | TK-10 > 100 µM | NCI-H460 > 100 µM | U-251 > 100 µM | UO-31 63.7 µM | SNB-19 > 100 µM | 786-0 > 100 µM | SK-MEL-5 44.4 µM | NCI-H522 10.6 µM | HCT-116 84.1 µM

O=C(c1ccccc1)C1S(=O)(=O)OCCOS1(=O)=O
inactive: SR > 100 µM | SK-MEL-2 > 100 µM | UACC-62 > 100 µM | EKVX > 100 µM | OVCAR-4 > 100 µM | IGROV-1 > 100 µM | SF-295 > 100 µM | TK-10 > 100 µM | UO-31 > 100 µM | SNB-19 > 100 µM | 786-0 > 100 µM | SK-MEL-5 > 100 µM | NCI-H522 > 100 µM | HCT-116 > 100 µM

CCOC(=O)CC(=O)Sc1ccccc1
inactive: SR 14.1 µM | SK-MEL-2 25.4 µM | UACC-62 16 µM | EKVX 19 µM | RXF 393 10.3 µM | OVCAR-4 37.7 µM | ACHN 23.1 µM | IGROV-1 12.5 µM | SF-295 29.6 µM | TK-10 38.3 µM | NCI-H460 24.7 µM | U-251 12.4 µM | UO-31 14.7 µM | SNB-19 28.2 µM | 786-0 19.1 µM | SK-MEL-5 17.3 µM | NCI-H522 11.8 µM | HCT-116 12.6 µM

Cc1ccc(/C=N/NS(=O)(=O)c2ccccc2)cc1C
inactive: SR 86.7 µM | SK-MEL-2 > 100 µM | UACC-62 98.9 µM | EKVX > 100 µM | RXF 393 > 100 µM | OVCAR-4 > 100 µM | ACHN > 100 µM | IGROV-1 51.5 µM | SF-295 45.7 µM | TK-10 > 100 µM | NCI-H460 > 100 µM | U-251 > 100 µM | UO-31 > 100 µM | 786-0 > 100 µM | SK-MEL-5 > 100 µM | HCT-116 76 µM

O=C1C2CCC(C2)C12CC1(c3ccccc3)C(=O)c3ccccc3N1O2 (configuration not stated)
inactive: SR 67.5 µM | UACC-62 91.8 µM | EKVX > 100 µM | RXF 393 > 100 µM | OVCAR-4 75.5 µM | ACHN > 100 µM | IGROV-1 > 100 µM | SF-295 94.6 µM | U-251 > 100 µM | UO-31 > 100 µM | SNB-19 > 100 µM | 786-0 > 100 µM | SK-MEL-5 > 100 µM | NCI-H522 > 100 µM | HCT-116 > 100 µM

O=c1[nH]c(=O)n(C2OC(CO)C(O)C2O)cc1OCC(F)(F)F (configuration not stated)
inactive: SR > 100 µM | SK-MEL-2 > 100 µM | UACC-62 > 100 µM | EKVX > 100 µM | RXF 393 > 100 µM | OVCAR-4 > 100 µM | ACHN > 100 µM | IGROV-1 > 100 µM | SF-295 > 100 µM | TK-10 > 100 µM | NCI-H460 > 100 µM | U-251 > 100 µM | UO-31 > 100 µM | SNB-19 > 100 µM | 786-0 > 100 µM | SK-MEL-5 > 100 µM | NCI-H522 > 100 µM | HCT-116 > 100 µM

CC(=O)OC(C[C@H](C)[C@@H]1CC[C@]2(C)C3=CCC4C(C)(C)C(=O)CC[C@]4(C)C3CCC12C)C1OC1(C)C (some centres not stated)
inactive: SR > 10 µM | SK-MEL-2 45.1 µM | UACC-62 23.4 µM | EKVX 32.7 µM | RXF 393 15.1 µM | OVCAR-4 28 µM | ACHN 11.5 µM | IGROV-1 21.9 µM | SF-295 22.7 µM | TK-10 19.1 µM | U-251 21.9 µM | UO-31 13.2 µM | SNB-19 39.6 µM | 786-0 19.7 µM | NCI-H522 12.9 µM | HCT-116 18.2 µM

Source: ChEMBL document CHEMBL1201862, “PubChem BioAssay data set” (2004)
